Experimental data from the supplement of paper PMC10307832.

Tests used:
Experiment in all cases: relative viability (nuclei count vs DMSO), 5 days (fraction); higher = more cells survive
NCI-H1792 = test system: NCI-H1792
Outline: (§1)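 After 5 days of treatment, lung cancer cells in 1536-well plates were fixed and stained in a single step (final 0.05% Triton X-100, 1% formaldehyde, 1 ug/ml Hoechst) and their nuclei counted on 4× images. Treatment had been applied by pin tool the day after seeding as one drug alone or as a fixed anchor-drug dose with five library-drug doses (not always all listed) in √10 steps. Relative viability is the nuclei count of treated wells divided by that of vehicle wells, and values are medians of duplicate plates.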

NCI-H838 = test system: NCI-H838
Outline: as §1

HCC-44 = test system: HCC-44
Outline: as §1

NCI-H650 = test system: NCI-H650
Outline: as §1

NCI-H358 = test system: NCI-H358
Outline: as §1

EKVX = test system: EKVX
Outline: as §1

NCI-H23 = test system: NCI-H23
Outline: as §1

NCI-H1650 = test system: NCI-H1650
Outline: as §1

NCI-H441 = test system: NCI-H441
Outline: as §1

HCC-15 = test system: HCC-15
Outline: as §1

BEN = test system: BEN
Outline: as §1

NCI-H2342 = test system: NCI-H2342
Outline: as §1

HCC-827 = test system: HCC-827
Outline: as §1

NCI-H1437 = test system: NCI-H1437
Outline: as §1

A-427 = test system: A-427
Outline: as §1

NCI-H1975 = test system: NCI-H1975
Outline: as §1

HARA = test system: HARA
Outline: as §1

SW 900 = test system: SW 900
Outline: as §1

COR-L23 = test system: COR-L23
Outline: as §1

SK-MES-1 = test system: SK-MES-1
Outline: as §1

201T = test system: 201T
Outline: as §1

NCI-H596 = test system: NCI-H596
Outline: as §1

CC(=O)O[C@@]12CO[C@@H]1C[C@H](O)[C@@]1(C)C(=O)[C@H](O)C3=C(C)[C@@H](OC(=O)[C@H](O)[C@@H](NC(=O)OC(C)(C)C)c4ccccc4)C[C@@](O)([C@@H](OC(=O)c4ccccc4)[C@H]21)C3(C)C [Docetaxel] + CC(=O)Nc1cccc(-n2c(=O)n(C3CC3)c(=O)c3c(Nc4ccc(I)cc4F)n(C)c(=O)c(C)c32)c1 [Trametinib] (partner 0.02 µM)
relative viability (NCI-H1792; first compound 0.0002 µM): 0.377
relative viability (NCI-H1792; first compound 0.000632 µM): 0.338
relative viability (NCI-H1792; first compound 0.002 µM): 0.31
relative viability (NCI-H1792; first compound 0.006325 µM): 0.142
relative viability (NCI-H1792; first compound 0.02 µM): 0.0842
relative viability (NCI-H838; first compound 0.0002 µM): 0.456
relative viability (NCI-H838; first compound 0.000632 µM): 0.638
relative viability (NCI-H838; first compound 0.002 µM): 0.183
relative viability (NCI-H838; first compound 0.006325 µM): 0.141
relative viability (NCI-H838; first compound 0.02 µM): 0.0997
relative viability (HCC-44; first compound 0.0002 µM): 1.04
relative viability (HCC-44; first compound 0.000632 µM): 1
relative viability (HCC-44; first compound 0.002 µM): 1.07
relative viability (HCC-44; first compound 0.006325 µM): 0.577
relative viability (HCC-44; first compound 0.02 µM): 0.472
relative viability (NCI-H650; first compound 0.0002 µM): 0.932
relative viability (NCI-H650; first compound 0.000632 µM): 0.644
relative viability (NCI-H650; first compound 0.002 µM): 0.318
relative viability (NCI-H650; first compound 0.006325 µM): 0.295
relative viability (NCI-H650; first compound 0.02 µM): 0.16
relative viability (NCI-H358; first compound 0.0002 µM): 0.167
relative viability (NCI-H358; first compound 0.000632 µM): 0.138
relative viability (NCI-H358; first compound 0.002 µM): 0.124
relative viability (NCI-H358; first compound 0.006325 µM): 0.0884
relative viability (NCI-H358; first compound 0.02 µM): 0.083
relative viability (EKVX; first compound 0.0002 µM): 0.343
relative viability (EKVX; first compound 0.000632 µM): 0.358
relative viability (EKVX; first compound 0.002 µM): 0.185
relative viability (EKVX; first compound 0.006325 µM): 0.286
relative viability (EKVX; first compound 0.02 µM): 0.131
relative viability (NCI-H23; first compound 0.0002 µM): 0.377
relative viability (NCI-H23; first compound 0.000632 µM): 0.294
relative viability (NCI-H23; first compound 0.002 µM): 0.278
relative viability (NCI-H23; first compound 0.006325 µM): 0.195
relative viability (NCI-H23; first compound 0.02 µM): 0.132
relative viability (NCI-H1650; first compound 0.0002 µM): 0.392
relative viability (NCI-H1650; first compound 0.000632 µM): 0.4
relative viability (NCI-H1650; first compound 0.002 µM): 0.217
relative viability (NCI-H1650; first compound 0.006325 µM): 0.107
relative viability (NCI-H441; first compound 0.0002 µM): 0.389
relative viability (NCI-H441; first compound 0.000632 µM): 0.255
relative viability (NCI-H441; first compound 0.002 µM): 0.202
relative viability (NCI-H441; first compound 0.006325 µM): 0.187
relative viability (NCI-H441; first compound 0.02 µM): 0.144
relative viability (HCC-15; first compound 0.0002 µM): 0.401
relative viability (HCC-15; first compound 0.000632 µM): 0.313
relative viability (HCC-15; first compound 0.002 µM): 0.193
relative viability (HCC-15; first compound 0.006325 µM): 0.247
relative viability (HCC-15; first compound 0.02 µM): 0.159
relative viability (BEN; first compound 0.0002 µM): 1.08
relative viability (BEN; first compound 0.000632 µM): 1.04
relative viability (BEN; first compound 0.002 µM): 0.763
relative viability (BEN; first compound 0.006325 µM): 0.419
relative viability (BEN; first compound 0.02 µM): 0.322
relative viability (NCI-H2342; first compound 0.0002 µM): 0.898
relative viability (NCI-H2342; first compound 0.000632 µM): 0.836
relative viability (NCI-H2342; first compound 0.002 µM): 0.567
relative viability (NCI-H2342; first compound 0.006325 µM): 0.672
relative viability (NCI-H2342; first compound 0.02 µM): 0.483
relative viability (HCC-827; first compound 0.0002 µM): 0.545
relative viability (HCC-827; first compound 0.000632 µM): 0.524
relative viability (HCC-827; first compound 0.002 µM): 0.376
relative viability (HCC-827; first compound 0.006325 µM): 0.272
relative viability (HCC-827; first compound 0.02 µM): 0.189
relative viability (NCI-H1437; first compound 0.0002 µM): 0.528
relative viability (NCI-H1437; first compound 0.000632 µM): 0.501
relative viability (NCI-H1437; first compound 0.002 µM): 0.264
relative viability (NCI-H1437; first compound 0.006325 µM): 0.216
relative viability (A-427; first compound 0.0002 µM): 0.765
relative viability (A-427; first compound 0.000632 µM): 0.775
relative viability (A-427; first compound 0.002 µM): 0.552
relative viability (A-427; first compound 0.006325 µM): 0.388
relative viability (A-427; first compound 0.02 µM): 0.216
relative viability (NCI-H1975; first compound 0.0002 µM): 0.386
relative viability (NCI-H1975; first compound 0.000632 µM): 0.263
relative viability (NCI-H1975; first compound 0.002 µM): 0.241
relative viability (NCI-H1975; first compound 0.006325 µM): 0.167
relative viability (NCI-H1975; first compound 0.02 µM): 0.148
relative viability (HARA; first compound 0.0002 µM): 0.456
relative viability (HARA; first compound 0.000632 µM): 0.155
relative viability (HARA; first compound 0.002 µM): 0.235
relative viability (HARA; first compound 0.006325 µM): 0.16
relative viability (HARA; first compound 0.02 µM): 0.104
relative viability (SW 900; first compound 0.0002 µM): 0.802
relative viability (SW 900; first compound 0.000632 µM): 0.287
relative viability (SW 900; first compound 0.002 µM): 0.232
relative viability (SW 900; first compound 0.02 µM): 0.163
relative viability (COR-L23; first compound 0.0002 µM): 0.528
relative viability (COR-L23; first compound 0.000632 µM): 0.579
relative viability (COR-L23; first compound 0.002 µM): 0.223
relative viability (COR-L23; first compound 0.006325 µM): 0.155
relative viability (COR-L23; first compound 0.02 µM): 0.0909
relative viability (SK-MES-1; first compound 0.0002 µM): 0.63
relative viability (SK-MES-1; first compound 0.000632 µM): 0.758
relative viability (SK-MES-1; first compound 0.002 µM): 0.436
relative viability (SK-MES-1; first compound 0.006325 µM): 0.313
relative viability (SK-MES-1; first compound 0.02 µM): 0.185
relative viability (201T; first compound 0.0002 µM): 0.7
relative viability (201T; first compound 0.000632 µM): 0.713
relative viability (201T; first compound 0.002 µM): 0.644
relative viability (201T; first compound 0.006325 µM): 0.498
relative viability (201T; first compound 0.02 µM): 0.366
relative viability (NCI-H596; first compound 0.0002 µM): 0.807
relative viability (NCI-H596; first compound 0.000632 µM): 0.997
relative viability (NCI-H596; first compound 0.002 µM): 0.642
relative viability (NCI-H596; first compound 0.006325 µM): 0.555
relative viability (NCI-H596; first compound 0.02 µM): 0.277
